Results on 20 compounds are retold here after patent US11814367B2, “Inhibitors of glycogen synthase 1 (GYS1) and methods of use thereof” (Maze Therapeutics, Inc., priority 2021, dated 2023).

Molecules are shown by their SMILES.

hGYS1 enzyme (recombinant hGYS1/GN1 protein), sequence (P13807 whole entry): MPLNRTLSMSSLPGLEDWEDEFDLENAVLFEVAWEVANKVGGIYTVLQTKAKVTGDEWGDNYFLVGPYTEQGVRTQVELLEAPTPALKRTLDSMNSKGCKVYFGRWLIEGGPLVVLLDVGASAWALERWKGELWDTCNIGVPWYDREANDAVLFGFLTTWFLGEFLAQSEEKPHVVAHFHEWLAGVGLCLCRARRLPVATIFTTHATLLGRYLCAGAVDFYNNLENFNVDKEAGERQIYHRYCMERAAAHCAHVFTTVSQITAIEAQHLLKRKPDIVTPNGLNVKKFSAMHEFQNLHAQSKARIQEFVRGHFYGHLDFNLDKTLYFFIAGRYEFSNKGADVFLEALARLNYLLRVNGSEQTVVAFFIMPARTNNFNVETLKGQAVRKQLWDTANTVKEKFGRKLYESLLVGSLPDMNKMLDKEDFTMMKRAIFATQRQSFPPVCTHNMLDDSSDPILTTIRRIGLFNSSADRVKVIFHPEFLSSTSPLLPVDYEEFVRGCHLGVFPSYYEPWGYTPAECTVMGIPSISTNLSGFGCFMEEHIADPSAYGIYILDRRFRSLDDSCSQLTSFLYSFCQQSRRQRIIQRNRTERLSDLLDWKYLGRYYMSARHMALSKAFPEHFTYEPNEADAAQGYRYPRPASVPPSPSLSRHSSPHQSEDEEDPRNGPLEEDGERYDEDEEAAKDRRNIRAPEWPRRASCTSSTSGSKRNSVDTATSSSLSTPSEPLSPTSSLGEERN
hGYS1 enzyme (recombinant hGYS1/GN1 protein), sequence (P46976 whole entry partner): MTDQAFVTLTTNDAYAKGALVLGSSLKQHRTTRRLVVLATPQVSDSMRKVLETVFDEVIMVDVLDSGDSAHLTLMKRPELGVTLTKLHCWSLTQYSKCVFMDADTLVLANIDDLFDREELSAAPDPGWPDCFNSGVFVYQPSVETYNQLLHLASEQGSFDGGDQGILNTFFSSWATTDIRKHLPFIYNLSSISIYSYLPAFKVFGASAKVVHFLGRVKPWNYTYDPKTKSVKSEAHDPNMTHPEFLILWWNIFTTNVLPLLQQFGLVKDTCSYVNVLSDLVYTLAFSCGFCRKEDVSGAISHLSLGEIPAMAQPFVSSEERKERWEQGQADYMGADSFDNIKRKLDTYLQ

The assay addresses hGYS1 enzyme (recombinant hGYS1/GN1 protein) (Homo sapiens (Human), UniProt P13807). The experiment in a line: GYS1 coupled enzyme assay (PK/LDH). The class given is biochemical. The conditions noted are these: hGYS1/GN1 50 nM, UDP-Glucose 0.8 mM, G6P 1 mM; geometric mean of at least 2 runs. The text has this: The GYS1 coupled enzyme assay is a kinetic biochemical assay that indirectly quantifies the rate of glycogen synthesis by coupling the conversion of GYS1 substrate UDP-glucose into UDP with downstream enzymatic reactions. UDP is released from UDP-glucose as glucose monomers are linked into the growing glycogen strand by GYS1. The coupled assay then proceeds with pyruvate kinase utilizing UDP and phospho(enol)pyruvate (PEP) to form pyruvate. Lactate dehydrogenase then converts pyruvate and NADH into lactate and NAD+. Oxidation of NADH to NAD+ can be measured continuously with a plate reader by quantifying the decrease in NADH absorbance at 340 nm over time.
Compounds that inhibit the hGYS1 enzyme and, subsequently, the downstream conversion of NADH to NAD+, were tested using assay ready plates (black, clear bottom 384 well plates) in a final DMSO reaction volume of 2.5% DMSO. The Assay Buffer contained 50 mM Tris pH 7.5, 2 mM MgCl2, and 100 mM KCl. Fresh stocks of BSA at a final concentration of 0.02% and TCEP at 1 mM were added before splitting buffer into hGYS1 buffer and substrate buffer. To the hGYS1 buffer, rabbit liver glycogen was added at a final concentration of 0.2% glycogen. Glucose-6-Phosphate was added at 1 mM, recombinant hGYS1/GN1 protein was added at 50 nM to the substrate buffer, phosphoenolpyruvate (PEP) was added at 2 mM, UDP-Glucose was added at 0.8 mM, NADH) was added at 0.6 mM, and Pyruvate Kinase/Lactate Dehydrogenase was added at 20 units/mL. The reaction was initiated by mixing hGYS1 buffer and substrate buffer at a 1:1 ratio. Both buffers were plated using a liquid dispensing device with hGYS1 buffer plated first followed by the substrate buffer. Plates were spun briefly to eliminate air bubbles and are immediately read in continuous mode at an absorbance of 340 nm, for 10 time points in one-minute increments, for a total of 10 minutes. The slope from these 10 time points was normalized to the positive and negative control wells. The duplicate % inhibition values are then averaged and fit to a Hill equation for dose response according to the Levenberg-Marquardt algorithm with the Hill equation maximum set to 100 and the minimum set to 0.
Unless otherwise specified, IC50 values are reported as the geometric mean of at least 2 assay runs on separate days. Each run represents the average of a technical replicate, where each compound was assayed twice in the same plate. […] A superscript “#” symbol in Table 2 indicates results from a single assay run.
As to `CO[C@H](C)[C@@H](C(=O)N1C[C@H](F)C[C@H]1C(=O)N[C@@H](c1ccccc1)c1ccc(C(C)C)cc1)N(C)C(C)=O` [Compound 5, (2S,4R)-4-fluoro-1-[(2S,3R)-3-methoxy-2-(N-methylacetamido)butanoyl]-N-[(S)-phenyl[4-(propan-2-yl)phenyl]methyl]pyrrolidine-2-carboxamide], the IC50 (in general, the concentration that inhibits the measured activity by half) worked out at 353 nM.

Take `CC(C)c1ccc([C@@H](NC(=O)[C@@H]2C[C@@H](F)CN2C(=O)c2cnco2)c2ccccc2)cc1` [Compound 12, (2S,4R)-4-fluoro-1-(1,3-oxazole-5-carbonyl)-N-[(S)-phenyl[4-(propan-2-yl)phenyl]methyl]pyrrolidine-2-carboxamide]: the IC50 was determined as 415 nM.

As to `CC(C)c1ccc([C@@H](NC(=O)[C@@H]2C[C@@H](F)CN2C(=O)Cc2cc[nH]n2)c2ccccc2)cc1` [Compound 19, (2S,4R)-4-fluoro-N-[(S)-phenyl[4-(propan-2-yl)phenyl]methyl]-1-[2-(1H-pyrazol-5-yl)acetyl]pyrrolidine-2-carboxamide], the IC50 was determined as 47 nM.

`CC(C)c1ccc([C@@H](NC(=O)[C@@H]2C[C@@H](F)CN2C(=O)Cn2cc(Cl)cn2)c2ccccc2)cc1` [Compound 20, (2S,4R)-1-[2-(4-chloro-1H-pyrazol-1-yl)acetyl]-4-fluoro-N-[(S)-phenyl[4-(propan-2-yl)phenyl]methyl]pyrrolidine-2-carboxamide]: the concentration for half-maximal inhibition (IC50) came out at 46 nM.

In the case of `Cc1ncncc1C(=O)N1C[C@H](F)C[C@H]1C(=O)N[C@@H](c1ccccc1)c1ccc(C(C)C)cc1` [Compound 30, (2S,4R)-4-fluoro-1-(4-methylpyrimidine-5-carbonyl)-N-[(S)-phenyl[4-(propan-2-yl)phenyl]methyl]pyrrolidine-2-carboxamide], the half-inhibitory concentration (IC50) was 947 nM.

On to `CC(C)c1ccc([C@@H](NC(=O)[C@@H]2C[C@@H](F)CN2C(=O)Cc2ccncc2)c2ccccc2)cc1` [Compound 39, (2S,4R)-4-fluoro-N-[(S)-phenyl[4-(propan-2-yl)phenyl]methyl]-1-[2-(pyridin-4-yl)acetyl]pyrrolidine-2-carboxamide], for which the IC50 amounted to 50 nM.

Consider `CCc1nc(C(=O)N2C[C@H](F)C[C@H]2C(=O)N[C@@H](c2ccccc2)c2ccc(C(C)C)cc2)co1` [Compound 42, (2S,4R)-1-(2-ethyl-1,3-oxazole-4-carbonyl)-4-fluoro-N-[(S)-phenyl[4-(propan-2-yl)phenyl]methyl]pyrrolidine-2-carboxamide], for which the IC50 came to 495 nM.

Turning to `CC(C)c1ccc([C@@H](NC(=O)[C@@H]2C[C@@H](F)CN2C(=O)C(C)n2cccn2)c2ccccc2)cc1` (stereo partly drawn) [Compound 43, (2S,4R)-4-fluoro-N-[(S)-phenyl[4-(propan-2-yl)phenyl]methyl]-1-[2-(1H-pyrazol-1-yl)propanoyl]pyrrolidine-2-carboxamide], the IC50 stood at 91 nM.

For `CC(C)c1ccc([C@@H](NC(=O)[C@@H]2C[C@@H](F)CN2C(=O)CCc2cnc[nH]2)c2ccccc2)cc1` [Compound 45, (2S,4R)-4-fluoro-1-[3-(1H-imidazol-5-yl)propanoyl]-N-[(S)-phenyl[4-(propan-2-yl)phenyl]methyl]pyrrolidine-2-carboxamide], the IC50 amounted to 58 nM.

In the case of `CC(C)c1ccc([C@@H](NC(=O)[C@@H]2C[C@@H](F)CN2C(=O)CCc2ncc[nH]2)c2ccccc2)cc1` [Compound 47, (2S,4R)-4-fluoro-1-[3-(1H-imidazol-2-yl)propanoyl]-N-[(S)-phenyl[4-(propan-2-yl)phenyl]methyl]pyrrolidine-2-carboxamide], the IC50 was 138 nM.

As to `CCn1nccc1C(=O)N1C[C@H](F)C[C@H]1C(=O)N[C@@H](c1ccccc1)c1ccc(C(C)C)cc1` [Compound 53, (2S,4R)-1-(1-ethyl-1H-pyrazole-5-carbonyl)-4-fluoro-N-[(S)-phenyl[4-(propan-2-yl)phenyl]methyl]pyrrolidine-2-carboxamide], the IC50 turned out to be 789 nM.

With `Cc1cc(CC(=O)N2C[C@H](F)C[C@H]2C(=O)N[C@@H](c2ccccc2)c2ccc(C(C)C)cc2)[nH]n1` [Compound 54, (2S,4R)-4-fluoro-1-[2-(3-methyl-1H-pyrazol-5-yl)acetyl]-N-[(S)-phenyl[4-(propan-2-yl)phenyl]methyl]pyrrolidine-2-carboxamide], the IC50 stood at 47 nM.

On to `CC(C)c1ccc([C@@H](NC(=O)[C@@H]2C[C@@H](F)CN2C(=O)CCc2cccnc2)c2ccccc2)cc1` [Compound 66, (2S,4R)-4-fluoro-N-[(S)-phenyl[4-(propan-2-yl)phenyl]methyl]-1-[3-(pyridin-3-yl)propanoyl]pyrrolidine-2-carboxamide], for which the IC50 was 82 nM.

Turning to `CC(=O)N(C)C(C)C(=O)N1C[C@H](F)C[C@H]1C(=O)N[C@@H](c1ccccc1)c1ccc(C(C)C)cc1` (stereo partly drawn) [Compound 71, (2S,4R)-4-fluoro-1-[2-(N-methylacetamido)propanoyl]-N-[(S)-phenyl[4-(propan-2-yl)phenyl]methyl]pyrrolidine-2-carboxamide], the half-maximal inhibitory concentration (IC50) stood at 375 nM.

Take `CC(=O)Nc1cc(C(=O)N2C[C@H](F)C[C@H]2C(=O)N[C@@H](c2ccccc2)c2ccc(C(C)C)cc2)ccn1` [Compound 72, (2S,4R)-1-(2-acetamidopyridine-4-carbonyl)-4-fluoro-N-[(S)-phenyl[4-(propan-2-yl)phenyl]methyl]pyrrolidine-2-carboxamide]: the IC50 worked out at 472 nM.

As for `CC(C)c1ccc([C@@H](NC(=O)[C@@H]2C[C@@H](F)CN2C(=O)c2cccn3c(=O)[nH]nc23)c2ccccc2)cc1` [Compound 74, (2S,4R)-4-fluoro-1-{3-oxo-2H,3H-[1,2,4]triazolo[4,3-a]pyridine-8-carbonyl}-N-[(S)-phenyl[4-(propan-2-yl)phenyl]methyl]pyrrolidine-2-carboxamide], the half-maximal inhibitory concentration (IC50) worked out at 705 nM.

`CC(C)c1ccc([C@@H](NC(=O)[C@@H]2C[C@@H](F)CN2C(=O)c2cc(-c3ccncc3)[nH]n2)c2ccccc2)cc1` [Compound 78, (2S,4R)-4-fluoro-N-[(S)-phenyl[4-(propan-2-yl)phenyl]methyl]-1-[5-(pyridin-4-yl)-1H-pyrazole-3-carbonyl]pyrrolidine-2-carboxamide]: the concentration for half-maximal inhibition (IC50) amounted to 953 nM.

With `CC(Cn1ccnc1)C(=O)N1C[C@H](F)C[C@H]1C(=O)N[C@@H](c1ccccc1)c1ccc(C(C)C)cc1` (stereo partly drawn) [Compound 79, (2S,4R)-4-fluoro-1-[3-(1H-imidazol-1-yl)-2-methylpropanoyl]-N-[(S)-phenyl[4-(propan-2-yl)phenyl]methyl]pyrrolidine-2-carboxamide], the 50% inhibitory concentration (IC50) amounted to 313 nM.

On to `CC(Cn1cccn1)C(=O)N1C[C@H](F)C[C@H]1C(=O)N[C@@H](c1ccccc1)c1ccc(C(C)C)cc1` (stereo partly drawn) [Compound 80, (2S,4R)-4-fluoro-1-[2-methyl-3-(1H-pyrazol-1-yl)propanoyl]-N-[(S)-phenyl[4-(propan-2-yl)phenyl]methyl]pyrrolidine-2-carboxamide], for which the IC50 worked out at 318 nM.

Turning to `COCc1oncc1C(=O)N1C[C@H](F)C[C@H]1C(=O)N[C@@H](c1ccccc1)c1ccc(C(C)C)cc1` [Compound 82, (2S,4R)-4-fluoro-1-[5-(methoxymethyl)-1,2-oxazole-4-carbonyl]-N-[(S)-phenyl[4-(propan-2-yl)phenyl]methyl]pyrrolidine-2-carboxamide], the IC50 was 504 nM.
